Ki data for 27 molecules are collected here from patent US20250304576A1 (Cancer Research Technology Limited, priority 2022, published 2025).

One assay addresses T1, Recombinant IKKα (Homo sapiens, UniProt O15111).
T1 construct: purchased Millipore, Dundee, UK
T1 sequence (O15111 1-745): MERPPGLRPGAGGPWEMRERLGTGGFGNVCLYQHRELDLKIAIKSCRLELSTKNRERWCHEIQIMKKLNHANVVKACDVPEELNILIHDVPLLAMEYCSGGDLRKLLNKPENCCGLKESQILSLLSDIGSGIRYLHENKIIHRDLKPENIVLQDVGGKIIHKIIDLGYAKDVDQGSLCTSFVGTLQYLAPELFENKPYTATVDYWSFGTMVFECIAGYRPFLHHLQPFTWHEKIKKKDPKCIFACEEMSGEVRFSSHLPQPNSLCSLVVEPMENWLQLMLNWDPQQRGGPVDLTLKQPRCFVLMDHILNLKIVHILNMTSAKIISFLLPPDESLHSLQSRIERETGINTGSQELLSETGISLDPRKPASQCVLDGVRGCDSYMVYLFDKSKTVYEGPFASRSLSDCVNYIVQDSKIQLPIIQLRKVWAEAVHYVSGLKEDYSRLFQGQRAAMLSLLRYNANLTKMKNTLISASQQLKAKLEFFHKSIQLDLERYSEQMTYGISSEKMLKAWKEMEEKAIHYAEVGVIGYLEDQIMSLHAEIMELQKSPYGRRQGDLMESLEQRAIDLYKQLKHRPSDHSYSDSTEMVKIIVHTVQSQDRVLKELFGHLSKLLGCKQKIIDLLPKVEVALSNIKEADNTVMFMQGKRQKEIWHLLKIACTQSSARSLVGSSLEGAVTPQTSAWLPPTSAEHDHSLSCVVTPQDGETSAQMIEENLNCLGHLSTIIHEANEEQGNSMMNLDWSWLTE
The experiment in a line: DELFIA IKKα kinase assay (apparent Ki, Cheng-Prusoff). Format: biochemical. In short, it runs like this: (§1)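 DELFIA time-resolved fluorescence (ex 340/em 615 nm) quantified phosphorylation of a biotinylated IκB-α Ser32 peptide (0.375 μM) by 37 nM recombinant IKKα or IKKβ. Reactions used 40 μM ATP, Tris pH 7.5 buffer with MgCl2, DTT and BSA, 60 min at 30° C. Cheng-Prusoff equation gave apparent Ki.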

For the next assay, the target named is T2, Recombinant IKKβ (Homo sapiens, UniProt O14920).
T2 construct: purchased Millipore, Dundee, UK
T2 sequence (O14920 1-756): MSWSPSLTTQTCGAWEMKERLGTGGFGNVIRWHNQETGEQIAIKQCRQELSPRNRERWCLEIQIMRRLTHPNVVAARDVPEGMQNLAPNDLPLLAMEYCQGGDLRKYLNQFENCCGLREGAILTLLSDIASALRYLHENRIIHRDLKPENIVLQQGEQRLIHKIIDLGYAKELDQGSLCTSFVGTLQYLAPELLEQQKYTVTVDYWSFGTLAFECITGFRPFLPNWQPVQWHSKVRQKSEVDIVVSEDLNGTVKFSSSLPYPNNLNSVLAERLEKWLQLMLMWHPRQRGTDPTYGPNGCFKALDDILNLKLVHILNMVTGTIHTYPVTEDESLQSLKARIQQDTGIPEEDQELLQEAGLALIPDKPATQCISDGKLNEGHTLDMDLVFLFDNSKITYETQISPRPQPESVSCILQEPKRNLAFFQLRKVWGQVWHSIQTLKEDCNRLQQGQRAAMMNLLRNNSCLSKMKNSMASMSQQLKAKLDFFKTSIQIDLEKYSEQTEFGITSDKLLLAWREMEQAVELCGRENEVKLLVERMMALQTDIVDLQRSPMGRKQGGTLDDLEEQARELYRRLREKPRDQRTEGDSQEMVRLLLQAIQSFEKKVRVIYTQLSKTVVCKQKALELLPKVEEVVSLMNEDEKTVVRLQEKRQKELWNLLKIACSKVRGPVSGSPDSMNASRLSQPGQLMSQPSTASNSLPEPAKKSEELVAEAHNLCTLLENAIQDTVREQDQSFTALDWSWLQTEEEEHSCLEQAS
The experiment in a line: DELFIA IKKβ kinase assay (apparent Ki, Cheng-Prusoff). It counts as biochemical. In short, it runs like this: as §1

Setting [1] is: non-italicised figure: DELFIA assay.
Where [2] appears, read: DELFIA assay (first line of an example).

As to `CC(C)(C)C#Cc1c(-c2ccc3[nH]nc(N)c3c2)ccnc1N` [Example 72, 5-(2-Amino-3-(3,3-dimethylbut-1-yn-1-yl)pyridine-4-yl)-1H-indazol-3-amine], the figures for the Ki on Recombinant IKKα (setting [1]) and on Recombinant IKKβ (setting [1]) were 6 nM and 268 nM, respectively.

In the case of `Nc1nccc(-c2ccc3[nH]nc(N)c3c2)c1C#CC1CCCC1` [Example 73, 5-(2-Amino-3-(cyclopentylethynyl)pyridine-4-yl)-1H-indazol-3-amine], the Ki at Recombinant IKKα (setting [1]) came to 12 nM; at Recombinant IKKβ (setting [1]), 289 nM.

As for `Nc1nccc(-c2ccc3[nH]nc(N)c3c2)c1C#CC1CCCCC1` [Example 74, 5-(2-Amino-3-(cyclohexylethynyl)pyridine-4-yl)-1H-indazol-3-amine], the Ki on Recombinant IKKα (setting [1]) was found to be 12 nM; at Recombinant IKKβ (setting [1]), 342 nM.

With `Nc1nccc(-c2ccc3[nH]nc(N)c3c2)c1C#Cc1ccccc1` [Example 75, 5-(2-Amino-3-(phenylethynyl)pyridine-4-yl)-1H-indazol-3-amine], the values for the Ki on Recombinant IKKα (setting [1]) and at Recombinant IKKβ (setting [1]) were 10 nM and 152 nM, respectively.

Regarding `Nc1nccc(-c2ccc3[nH]nc(N)c3c2)c1C#CCO` [Example 83, 3-(2-Amino-4-(3-amino-1H-indazol-5-yl)pyridine-3-yl)prop-2-yn-1-ol], the figures for the Ki at Recombinant IKKα (setting [1]) and at Recombinant IKKβ (setting [1]) were 6 nM and 402 nM, respectively.

Take `Nc1nccc(-c2ccc3[nH]nc(N)c3c2)c1C#CCCO` [Example 84, 4-(2-Amino-4-(3-amino-1H-indazol-5-yl)pyridine-3-yl)but-3-yn-1-ol]: the Ki turned out to be 1 nM at Recombinant IKKα (setting [1]) and 103 nM on Recombinant IKKβ (setting [1]).

Take `Nc1nccc(-c2ccc3[nH]nc(N)c3c2)c1C#CCCCO` [Example 85, 5-(2-Amino-4-(3-amino-1H-indazol-5-yl)pyridine-3-yl)pent-4-yn-1-ol]: the Ki on Recombinant IKKα (setting [1]) was 4 nM; at Recombinant IKKβ (setting [1]), 96 nM.

Take `CC(C)(O)C#Cc1c(-c2ccc3[nH]nc(N)c3c2)ccnc1N` [Example 87, 4-(2-Amino-4-(3-amino-1H-indazol-5-yl)pyridine-3-yl)-2-methylbut-3-yn-2-ol]: the Ki on Recombinant IKKα (setting [1]) came to 8 nM; on Recombinant IKKβ (setting [1]), 294 nM.

For the molecule `CC(C)(C)OCC#Cc1c(-c2ccc3[nH]nc(N)c3c2)ccnc1N` [Example 88, 5-(2-Amino-3-(3-(tert-butoxy)prop-1-yn-1-yl)pyridine-4-yl)-1H-indazol-3-amine], the Ki was determined as 133 nM on Recombinant IKKα (setting [1]) and 2340 nM on Recombinant IKKβ (setting [1]).

In the case of `Nc1nccc(-c2ccc3[nH]nc(N)c3c2)c1C#CC1(O)CCCCC1` [Example 90, 1-((2-Amino-4-(3-amino-1H-indazol-5-yl)pyridine-3-yl)ethynyl)cyclohexan-1-ol], the Ki on Recombinant IKKα (setting [1]) stood at 36 nM; at Recombinant IKKβ (setting [1]) it was 1410 nM.

Consider `Nc1nccc(-c2ccc3[nH]nc(N)c3c2)c1C#CC1(O)CCCCCC1` [Example 91, 1-((2-Amino-4-(3-amino-1H-indazol-5-yl)pyridine-3-yl)ethynyl)cycloheptan-1-ol], for which the Ki on Recombinant IKKα (setting [1]) turned out to be 105 nM; on Recombinant IKKβ (setting [1]), 3090 nM.

On to `CC(C)(N)C#Cc1c(-c2ccc3[nH]nc(N)c3c2)ccnc1N` [Example 92, 5-(2-Amino-3-(3-amino-3-methylbut-1-yn-1-yl)pyridin-4-yl)-1H-indazol-3-amine], for which the Ki was 7 nM at Recombinant IKKα (setting [1]) and 325 nM at Recombinant IKKβ (setting [1]).

In the case of `Nc1nccc(-c2ccc3[nH]nc(N)c3c2)c1C#CCCN1CCCCC1` [Example 93, 5-(2-Amino-3-(4-(piperidin-1-yl)but-1-yn-1-yl)pyridin-4-yl)-1H-indazol-3-amine], the figures for the Ki at Recombinant IKKα (setting [1]) and at Recombinant IKKβ (setting [1]) were 32 nM and 880 nM, respectively.

Take `Nc1nccc(-c2ccc3[nH]nc(N)c3c2)c1C#CCCCN1CCCCC1` [Example 95, 5-(2-Amino-3-(5-(piperidin-1-yl)pent-1-yn-1-yl)pyridin-4-yl)-1H-indazol-3-amine]: the figures for the Ki on Recombinant IKKα (setting [1]) and at Recombinant IKKβ (setting [1]) were 91 nM and 3270 nM, respectively.

In the case of `Nc1nccc(-c2ccc3[nH]nc(N)c3c2)c1C#CCCCN1CCOCC1` [Example 96, 5-(2-Amino-3-(5-morpholinopent-1-yn-1-yl)pyridin-4-yl)-1H-indazol-3-amine], the figures for the Ki at Recombinant IKKα (setting [1]) and on Recombinant IKKβ (setting [1]) were 350 nM and 1150 nM, respectively.

Consider `Nc1nccc(-c2ccc3[nH]nc(N)c3c2)c1C#CCCC(=O)N1CCOCC1` [Example 99, 5-(2-Amino-4-(3-amino-1H-indazol-5-yl)pyridine-3-yl)-1-morpholinopent-4-yn-1-one], for which the Ki came to 15 nM on Recombinant IKKα (setting [1]) and 531 nM on Recombinant IKKβ (setting [1]).

Take `Nc1cc(-c2cc(-c3ccccc3)c3[nH]nc(N)c3c2)ccn1` [Example 104, 5-(2-Aminopyridin-4-yl)-7-phenyl-1H-indazol-3-amine]: the Ki was 54 nM at Recombinant IKKα (setting [1]) and 838 nM on Recombinant IKKβ (setting [1]).

Turning to `Nc1cc(-c2cc(-c3ccoc3)c3[nH]nc(N)c3c2)ccn1` [Example 129, 5-(2-Aminopyridin-4-yl)-7-(furan-3-yl)-1H-indazol-3-amine], the results for the Ki at Recombinant IKKα (setting [1]) and at Recombinant IKKβ (setting [1]) were 10 nM and 511 nM, respectively.

Consider `CC(C)(C)C#Cc1cc(-c2ccnc(N)c2)cc2c(N)n[nH]c12` [Example 137, 5-(2-Aminopyridin-4-yl)-7-(3,3-dimethylbut-1-yn-1-yl)-1H-indazol-3-amine], for which the Ki turned out to be 53 nM on Recombinant IKKα (setting [1]) and 1470 nM on Recombinant IKKβ (setting [1]).

For the molecule `CC(C)(O)C#Cc1cc(-c2ccnc(N)c2)cc2c(N)n[nH]c12` [Example 140, 4-(3-Amino-5-(2-aminopyridin-4-yl)-1H-indazol-7-yl)-2-methylbut-3-yn-2-ol], the results for the Ki at Recombinant IKKα (setting [1]) and at Recombinant IKKβ (setting [1]) were 281 nM and 3000 nM, respectively.

Take `C#Cc1cc(-c2ccnc3[nH]ccc23)cc2c(N)n[nH]c12` [Example 200, 7-Ethynyl-5-(1H-pyrrolo[2,3-b]pyridin-4-yl)-1H-indazol-3-amine]: the Ki was 26 nM at Recombinant IKKα (setting [2]) and 137 nM on Recombinant IKKβ (setting [2]).

Consider `CC(C)(C)C#Cc1cc(-c2ccnc3[nH]ccc23)cc2c(N)n[nH]c12` [Example 201, 7-(3,3-Dimethylbut-1-yn-1-yl)-5-(1H-pyrrolo[2,3-b]pyridin-4-yl)-1H-indazol-3-amine], for which the Ki on Recombinant IKKα (setting [2]) amounted to 62 nM; at Recombinant IKKβ (setting [2]), 1390 nM.

As for `Nc1n[nH]c2c(C#CC3CC3)cc(-c3ccnc4[nH]ccc34)cc12` [Example 202, 7-(Cyclopropylethynyl)-5-(1H-pyrrolo[2,3-b]pyridin-4-yl)-1H-indazol-3-amine], the Ki amounted to 13 nM at Recombinant IKKα (setting [2]) and 181 nM on Recombinant IKKβ (setting [2]).

With `Nc1n[nH]c2c(C#CC3CCCC3)cc(-c3ccnc4[nH]ccc34)cc12` [Example 203, 7-(Cyclopentylethynyl)-5-(1H-pyrrolo[2,3-b]pyridin-4-yl)-1H-indazol-3-amine], the Ki on Recombinant IKKα (setting [2]) was determined as 26 nM; at Recombinant IKKβ (setting [2]) it was 452 nM.

On to `Nc1n[nH]c2c(C#CC3CCCCC3)cc(-c3ccnc4[nH]ccc34)cc12` [Example 204, 7-(Cyclohexylethynyl)-5-(1H-pyrrolo[2,3-b]pyridin-4-yl)-1H-indazol-3-amine], for which the Ki on Recombinant IKKα (setting [2]) is 169 nM; on Recombinant IKKβ (setting [2]), 1180 nM.

Regarding `CC(C)(O)C#Cc1cc(-c2ccnc3[nH]ccc23)cc2c(N)n[nH]c12` [Example 206, 4-(3-Amino-5-(1H-pyrrolo[2,3-b]pyridin-4-yl)-1H-indazol-7-yl)-2-methylbut-3-yn-2-ol], the Ki at Recombinant IKKα (setting [2]) was found to be 81 nM; at Recombinant IKKβ (setting [2]) it was 1520 nM.

As to `Nc1n[nH]c2c(C#CCCCN3CCOCC3)cc(-c3ccnc4[nH]ccc34)cc12` [Example 210, 7-(5-Morpholinopent-1-yn-1-yl)-5-(1H-pyrrolo[2,3-b]pyridin-4-yl)-1H-indazol-3-amine], the Ki is 23 nM at Recombinant IKKα (setting [2]) and 3100 nM at Recombinant IKKβ (setting [2]).
